Data published in patent US20250288584A1, “COMBINATIONS COMPRISING POSITIVE ALLOSTERIC MODULATORS OR ORTHOSTERIC AGONISTS OF METABOTROPIC GLUTAMATERGIC RECEPTOR SUBTYPE 2 AND THEIR USE” (JANSSEN PHARMACEUTICA NV, priority 2014, published 2025).
Where “and” joins values, the source holds several entries; their conditions need not be identical. Equal entries are not always repeated. Entries after “also recorded” stand apart in the source; their conditions may differ.

How the values were obtained:
Assay type in all cases: in vivo, mice
corneal kindled seizures = experiment: Mouse corneal kindling model; conditions: 100 mg/kg s.c.; Racine score 0-5
Method: After the mice reached a stable kindled state, the test compound or vehicle was administered and, at the previously determined TPE, each animal was given the electrical stimulus indicated above. […] One dose of LEV and two doses of Co.

[1] = tested on: 6 Hz (44 mA) psychomotor seizures; experiment: 6 Hz psychomotor seizure test, 44 mA (alone, combination with LEV, isobolographic study)
Method: Test compounds were administered using an optimal fluid volume to body fluid ratio. Test compounds were administered to mice in a volume of 0.01 mL/g of body weight (White H. S., et al., General Principles: Experimental selection, quantification, and evaluation of antiepileptic drugs, in Antiepileptic Drugs, Fourth Edition, […], and B. S. Meldrum, Editors. 1995, Raven Press, Ltd.: New York, pp. 99-110). For subcutaneous (s.c.) administration, the test compounds were administered into a loose fold of skin along the back of the animal except compound 6-b, which was administered orally (p.o). […] The animals were maintained on an adequate diet (Prolab RMH 3000) and allowed free access to food and water, except during the short time they were removed from their cage for testing. Animals newly received in the laboratory were allowed sufficient time to correct for possible food and water restriction incurred during transit before being employed in testing. All mice were housed in plastic cages in specially constructed rooms with controlled humidity, exchange of air and controlled lighting (12 hours on-12 hours off). The animals were housed, fed, and handled in a manner consistent with the recommendations in the National Council Publication, “Guide for the Care and Use of Laboratory Animals”. In the determination of an ED50 or TD50 for each test compound, the first dose administered is usually the same dose as that used in a successful TPE determination. […] Third and fourth doses were selected to produce an evenly spaced dose response line. […] The 6 Hz seizure test is used as a model of pharmacoresistant limbic seizures. […] Focal seizures were induced in mice via corneal stimulation (6 Hz, 0.2 msec rectangular pulse, 3 sec duration; Barton et al. 2001). Mice were tested at either 32 mA or 44 mA. […] The seizures that arise from corneal stimulation in this assay are characterized by a minimal clonic phase followed by stereotyped automatistic behaviors including stun, forelimb clonus, twitching of the vibrissae, and Straub-tail. Animals not displaying these behaviors were considered protected. […] In addition to recording the efficacy and toxicity data for these compounds alone or in combination, both plasma and brain samples were collected from each of the groups for pharmacokinetic/pharmacokinetic analysis. No pharmacokinetic interaction was observed based on compound levels in the plasma and brain samples (data not shown). Isobolographic studies were conducted for the combined administration of Co. […] Studies were conducted according to previously described methods (Madsen et al. 2011). Initial ED50 values were determined for both Co. […] Co. […] Doses used were proportional to calculated ED50 values. […] Experimental treatment doses (see Table 4) were based on theoretical values and adjusted according to observed effects. Experimentally determined ED50 (+SEM) values for each fixed dose-ratio combination were compared to the theoretical values (t-test) for statistical purposes. […] Subsequently, the experimental combined doses were determined for the same paradigms in the 6 Hz seizure test (Table 4 below).

[2] = Minimal motor impairment (rotarod)
Method: Acute MMI was assessed by a combination of direct observations of the animal for overt symptoms of the animal's neurological or muscular function. In mice, the rotarod procedure was used to disclose minimal muscular or neurological impairment. When a mouse is placed on a rod that rotates at a speed of 6 rpm, the animal can maintain its equilibrium for long periods of time. The animal was considered toxic if it fell off this rotating rod three times during a 1 min period.
In the determination of an ED50 or TD50 for each test compound, the first dose administered is usually the same dose as that used in a successful TPE determination.
If the initial dose employed was effective or toxic in more than 50% of animals, the next dose would be one-half that of the initial dose; if the initial dose was effective or toxic in less than 50% of animals, the following dose would be twice that of the initial dose. Third and fourth doses were selected to produce an evenly spaced dose response line. There should be a minimum of 4 points either including or lying between 0 and 100%.

[3] = tested on: 6 Hz (32 mA) psychomotor seizures; experiment: 6 Hz psychomotor seizure test, 32 mA (incl. TPE determination)
Method: Test compounds were administered using an optimal fluid volume to body fluid ratio. Test compounds were administered to mice in a volume of 0.01 mL/g of body weight (White H. S., et al., General Principles: Experimental selection, quantification, and evaluation of antiepileptic drugs, in Antiepileptic Drugs, Fourth Edition, […], and B. S. Meldrum, Editors. 1995, Raven Press, Ltd.: New York, pp. 99-110). For subcutaneous (s.c.) administration, the test compounds were administered into a loose fold of skin along the back of the animal except compound 6-b, which was administered orally (p.o). […] The animals were maintained on an adequate diet (Prolab RMH 3000) and allowed free access to food and water, except during the short time they were removed from their cage for testing. Animals newly received in the laboratory were allowed sufficient time to correct for possible food and water restriction incurred during transit before being employed in testing. All mice were housed in plastic cages in specially constructed rooms with controlled humidity, exchange of air and controlled lighting (12 hours on-12 hours off). The animals were housed, fed, and handled in a manner consistent with the recommendations in the National Council Publication, “Guide for the Care and Use of Laboratory Animals”. In the determination of an ED50 or TD50 for each test compound, the first dose administered is usually the same dose as that used in a successful TPE determination. […] Third and fourth doses were selected to produce an evenly spaced dose response line. […] TPE was determined using the 6 Hz (32 mA) assay. […] The 6 Hz seizure test is used as a model of pharmacoresistant limbic seizures. […] Focal seizures were induced in mice via corneal stimulation (6 Hz, 0.2 msec rectangular pulse, 3 sec duration; Barton et al. 2001). Mice were tested at either 32 mA or 44 mA. […] The seizures that arise from corneal stimulation in this assay are characterized by a minimal clonic phase followed by stereotyped automatistic behaviors including stun, forelimb clonus, twitching of the vibrissae, and Straub-tail. Animals not displaying these behaviors were considered protected.

[4] = 20 mg/kg s.c., 0.5 h, 32 mA group
[5] = 40 mg/kg s.c., 0.5 h, 32 mA group

CCCCn1ccc(N2CCC(c3ccccc3)CC2)c(Cl)c1=O [Co. No. 2-a]
Seizure score (dose) Corneal kindling (corneal kindled seizures): 4.4 | activity when administered alone ([1]; 10 mg/kg s.c.): ^aCo. No. 2-a (s.c.) 10 mg/kg tested in combination with LEV (i.p.); Co. No. 2-a 10 mg/kg, not active when administered alone; also recorded: ^bCo. No. 2-a (s.c.) 10 mg/kg tested in combination with LEV (i.p.); Co. No. 2-a 10 mg/kg, not active when administered alone | % protection 44 mA ([1]; 100 mg/kg s.c.): 50% protection at | responders at 10 mg/kg ([1]; Mus musculus, sc, 0.5 h, 10 mg/kg s.c., 0.5 h, read-out: # protected/# tested (converted)): 0% | responders at 15 mg/kg ([1]; Mus musculus, sc, 0.5 h, 15 mg/kg s.c., 0.5 h, read-out: # protected/# tested (converted)): 25% | responders at 20 mg/kg ([1]; Mus musculus, sc, 0.5 h, 20 mg/kg s.c., 0.5 h, read-out: # protected/# tested (converted)): 37.5% | responders at 40 mg/kg ([1]; Mus musculus, sc, 0.5 h, 40 mg/kg s.c., 0.5 h, read-out: # protected/# tested (converted)): 100% | ED50 ([1]; Mus musculus, sc, at TPE, compound alone, read-out: ED50 (95% CI) 44 mA): 21 mg/kg | # rotarod motor impairment/# tested ([2]; 2.5 mg/kg s.c., 0.5 h, 32 mA group): 1/8 | # rotarod motor impairment/# tested ([2]; 5 mg/kg s.c., 0.5 h, 32 mA group): 0/8 | # rotarod motor impairment/# tested ([2]; 10 mg/kg s.c., 0.5 h, 32 mA group): 0/8 | # rotarod motor impairment/# tested ([2]; 10 mg/kg s.c., 0.5 h, 44 mA group): 1/8 and 0/8 | # rotarod motor impairment/# tested ([2]; 15 mg/kg s.c., 0.5 h, 44 mA group): 1/8 | # rotarod motor impairment/# tested [2, 4]: 3/8 | # rotarod motor impairment/# tested ([2]; 20 mg/kg s.c., 0.5 h, 44 mA group): 0/8 | # rotarod motor impairment/# tested [2, 5]: 2/8 | # rotarod motor impairment/# tested ([2]; 40 mg/kg s.c., 0.5 h, 44 mA group): 4/8 | TD50 at 0.5 h ([2]; mouse, in vivo, sc, rotarod): > 40 mg/kg | # protected/# tested ([3]; 2.5 mg/kg s.c., 0.5 h): 0/8 | # protected/# tested ([3]; 5 mg/kg s.c., 0.5 h): 0/8 | # protected/# tested ([3]; 10 mg/kg s.c., 0.5 h): 4/8 | # protected/# tested ([3]; 20 mg/kg s.c., 0.5 h): 6/8 | # protected/# tested ([3]; 40 mg/kg s.c., 0.5 h): 8/8 | ED50 (95% CI) 32 mA ([3]; s.c., at TPE): ED50 (95% CI): 12.2 mg/kg (8.4 to 17.4)

Cc1cc(-c2nc(CN3CCNCC3)no2)cc2c1C(=O)N(Cc1ccc(OC(F)(F)F)cc1)C2 [CAS 1092453-15-0, 2,3-dihydro-7-methyl-5-[3-(1-piperazinylmethyl)-1,2,4-oxadiazol-5-yl]-2-[[4-(trifluoromethoxy)phenyl]methyl]-1H-isoindol-1-one, reference compound]
activity in the 6 Hz 44 mA test ([1]; result in words): did not show activity | pharmacodynamic interaction with LEV in the 6 Hz model ([1]; result in words): did not display synergy | # rotarod motor impairment/# tested ([2]; 20 mg/kg s.c., 0.25 h, 32 mA group): 0/4 | # rotarod motor impairment/# tested [2, 4]: 0/4 | # rotarod motor impairment/# tested ([2]; 20 mg/kg s.c., 1 h, 32 mA group): 0/4 | # rotarod motor impairment/# tested ([2]; 20 mg/kg s.c., 2 h, 32 mA group): 0/4 | # rotarod motor impairment/# tested ([2]; 20 mg/kg s.c., 4 h, 32 mA group): 0/4 | # rotarod motor impairment/# tested ([2]; 40 mg/kg s.c., 0.25 h, 32 mA group): 0/4 | # rotarod motor impairment/# tested [2, 5]: 0/4 | # rotarod motor impairment/# tested ([2]; 40 mg/kg s.c., 1 h, 32 mA group): 0/4 | # rotarod motor impairment/# tested ([2]; 40 mg/kg s.c., 2 h, 32 mA group): 0/4 | # rotarod motor impairment/# tested ([2]; 40 mg/kg s.c., 4 h, 32 mA group): 0/4 | # rotarod motor impairment/# tested ([2]; 80 mg/kg s.c., 0.25 h, 32 mA group): 0/4 | # rotarod motor impairment/# tested ([2]; 80 mg/kg s.c., 0.5 h, 32 mA group): 0/4 | # rotarod motor impairment/# tested ([2]; 80 mg/kg s.c., 1 h, 32 mA group): 1/4 | # protected/# tested ([3]; 20 mg/kg s.c., 0.25 h): 1/4 | # protected/# tested ([3]; 20 mg/kg s.c., 0.5 h): 0/4 | # protected/# tested ([3]; 20 mg/kg s.c., 1 h): 1/4 | # protected/# tested ([3]; 20 mg/kg s.c., 2 h): 0/4 | # protected/# tested ([3]; 20 mg/kg s.c., 4 h): 0/4 | # protected/# tested ([3]; 40 mg/kg s.c., 0.25 h): 1/4 | # protected/# tested ([3]; 40 mg/kg s.c., 0.5 h): 1/4 | # protected/# tested ([3]; 40 mg/kg s.c., 1 h): 1/4 | # protected/# tested ([3]; 40 mg/kg s.c., 2 h): 0/4 | # protected/# tested ([3]; 40 mg/kg s.c., 4 h): 0/4 | # protected/# tested ([3]; 80 mg/kg s.c., 0.25 h): 0/4 | # protected/# tested ([3]; 80 mg/kg s.c., 0.5 h): 0/4 | # protected/# tested ([3]; 80 mg/kg s.c., 1 h): 1/4 | activity in the 6 Hz 32 mA test ([3]; result in words): Low activity; also recorded: did not show activity
